From patent US4275076A, “Substituted naphthoic acids” (American Cyanamid Company, priority 1980, dated 1981)

Key:
[1] = tested on: corneal ulcerations; conditions: directly applied to the eye, alkali burned rabbit; cited from earlier work
[2] = tested on: corneal ulceration; conditions: human; cited from earlier work
[3] = compared with cysteine; cited from earlier work
[4] = tested on: collagenase; conditions: in words; cited from earlier work
[5] = biological target: T1, human skin fibroblast collagenase (Homo sapiens, UniProt P03956); experiment: Collagenase Assay, Test Code 006 (degradation of 14C-labeled native collagen fibrils); assay type: biochemical; conditions: 30 μg./ml., 37° C., 16 hours; based on the 0% value for the enzyme control
T1 construct: endogenous in cells; host or cells: human skin fibroblasts
T1 sequence (P03956 100-469): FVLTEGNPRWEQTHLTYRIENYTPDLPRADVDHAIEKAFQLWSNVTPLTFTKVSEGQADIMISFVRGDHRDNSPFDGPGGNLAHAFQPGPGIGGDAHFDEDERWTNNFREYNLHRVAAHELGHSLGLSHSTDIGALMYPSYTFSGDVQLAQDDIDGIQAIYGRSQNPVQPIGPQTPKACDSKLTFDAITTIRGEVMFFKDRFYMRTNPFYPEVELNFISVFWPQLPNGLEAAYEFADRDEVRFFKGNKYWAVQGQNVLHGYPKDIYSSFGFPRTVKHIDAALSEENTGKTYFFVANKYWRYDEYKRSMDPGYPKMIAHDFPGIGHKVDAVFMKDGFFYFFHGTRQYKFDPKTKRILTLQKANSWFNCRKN
Protocol: An active inhibitor would inhibit the degradation of the collagen fibril; (iii) Leukocyte Neutral Proteases Inhibitor Assay--This test measures the ability of neutral proteases derived from human leukocytes to degrade radiolabeled proteoglycans entrapped in polyacrylamide beads.
(i) Collagenase Assay--Test Code 006
Collagenase assays were performed by a modification of the method of Harper, et al., Biochem., 10, 3035 (1971). In a typical assay (total volume of 0.45 ml.), 100 μl. of the activated enzyme was added to the ^14 C-labeled collagen fibrils (250 μl.) followed by 100 μl. of 50 mM cacodylate, pH 7.4, containing 5 mM calcium chloride. After incubation at 37° C. for 16 hours, the tubes were centrifuged in a Beckman microfuge for five minutes at full speed. An aliquot (200 μl.) of the supernatant, representing collagenase digestion products of the fibril, was assayed for radioactivity. The effect of the test compound on collagen degradation by collagenase was examined as follows:
The test compound (in distilled water) was added at a test concentration of 30 μg./ml. to the assay tubes containing active collagenase (total volume 450 μl.) and after 16 hours the amount of radioactivity in the supernatant was determined. Appropriate blanks and trypsin controls were run in parallel.
The activities are expressed as % inhibition (lowering) of collagenase activity, i.e. based on the 0% value for the enzyme control.

[6] = tested on: collagenase; conditions: in words; collagenase or a proteinase contaminant in the collagenase preparation; cited from earlier work

Molecule: CC(=O)N[C@@H](CS)C(=O)O [acetylcysteine]
- frequency of ulceration [1]: reduce the frequency of ulceration
- treatment of acute and chronic corneal ulceration [2]: effective
- stability [3]: greater stability

Molecule: O[C@@H](CS)[C@@H](O)CS [dithiothretol]
- collagenase inhibition [4]: collagenase inhibitors

Molecule: O=C([O-])CN(CCN(CC(=O)[O-])CC(=O)[O-])CC(=O)[O-].[Ca+2].[Ca+2] [Calcium ethylenediaminetetraacetate]
- frequency of ulceration [1]: reduce the frequency of ulceration

Molecule: c1cnc2c(c1)ccc1cccnc12 [1,10-phenanthroline]
- collagenase inhibition [4]: collagenase inhibitors

Molecule: CCOC(=O)c1cc(OC(C)=O)c2cc(NC(=O)c3cccc(NC(=O)Nc4cccc(C(=O)Nc5ccc6cc(C(=O)OCC)cc(OC(C)=O)c6c5)c4)c3)ccc2c1 [6,6'-[Ureylenebis(m-phenylenecarbonylimino)]bis[4-hydroxy-2-naphthoic acid]diethyl ester diacetate]
- inhibition at 30 µg/mL [5]: 7%

Molecule: O=C(Nc1cccc(C(=O)Nc2ccc3cc(C(=O)O)cc(O)c3c2)c1)Nc1cccc(C(=O)Nc2ccc3cc(C(=O)O)cc(O)c3c2)c1 [6,6'-[Ureylenebis(m-phenylenecarbonylimino)]bis[4-hydroxy-2-naphthoic acid]]
- inhibition at 30 µg/mL [5]: 92%

Molecule: Cc1cc(-c2ccc(/N=N/c3c(S(=O)(=O)O)cc4cc(S(=O)(=O)O)cc(N)c4c3O)c(C)c2)ccc1/N=N/c1c(S(=O)(=O)O)cc2cc(S(=O)(=O)O)cc(N)c2c1O [trypan blue]
- inhibiting the activity of collagenase [6]: inhibiting the activity of collagenase

Molecule: N[C@@H](CS)C(=O)O [cysteine]
- treatment of acute and chronic corneal ulceration [2]: effective
- collagenase inhibition [4]: collagenase inhibitors

Molecule: CCOC(=O)c1cc(O)c2cc(NC(=O)c3cccc(NC(=O)Nc4cccc(C(=O)Nc5ccc6cc(C(=O)OCC)cc(O)c6c5)c4)c3)ccc2c1 [6,6'-[Ureylenebis(m-phenylenecarbonylimino)]bis[4-hydroxy-2-naphthoic acid] diethyl ester]
- inhibition at 30 µg/mL [5]: 57%

Molecule: α2 -macroglobulin: Naturally occurring collagenase inhibitors include the serum components α2 -macroglobulin and β1-anticollagenase
- collagenase inhibition [4]: collagenase inhibitors

Molecule: Cc1ccc(C(=O)Nc2ccc(S(=O)(=O)O)c3cc(S(=O)(=O)O)cc(S(=O)(=O)O)c23)cc1NC(=O)c1cccc(NC(=O)Nc2cccc(C(=O)Nc3cc(C(=O)Nc4ccc(S(=O)(=O)O)c5cc(S(=O)(=O)O)cc(S(=O)(=O)O)c45)ccc3C)c2)c1 [Suramin]
- inhibiting the activity of collagenase [6]: not inhibiting the action of collagenase

Molecule: sodium auriothiomalate
- collagenase inhibition [4]: collagenase inhibitors
